# In patent US5885592A, “Methods and pharmaceutical compositions for oral delivery of molecular iodine” (priority 1997, dated 1999):
# What was measured:
# mammary tissue [1] = experiment: Histologic grading of mammary tissue in iodine deficient rats, 4 weeks (Example 12); assay type: in vivo, Female Sprague-Dawley rats; conditions: for Fibroadenomata / Lobular hyperplasia / Periductal fibrosis / Secretion: 4 weeks
# Method: (§1) Rats were dosed with molecular iodine once daily. Food was removed from the rats each morning and ten hours later, each rat was dosed with one of three concentrations 0.0010, 0.010 or 0.10 mg/kg of molecular iodine. A dose of iodide (100 ug/kg) was given to a control group of rats. The negative control consisted of rats which were dosed with tap water. At the end of 4 weeks rats were sacrificed and microscopic sections of the mammary gland tissues were stained with hematoxylin and eosin prior to being read by a pathologist.
# Six groups of animals were examined: groups 1-3 received daily doses of one of three concentrations of molecular iodine; (4) received the normal diet without perchlorate treatment; (5) received the iodine deficient diet with a water gavage; and (6) received an iodine deficient diet and were dosed with iodide (100 ug/kg). […] The results of this histological grading are shown below in tabular form.
# human = human oral consumption; cited from earlier work
# [2] = Body weight of iodine deficient rats, 2 week study (Example 8); conditions: in g (unit assumed)
# Method: Rats were dosed with molecular iodine once daily. Food was removed from the rats each morning and ten hours later, each rat was dosed with 80 ug/kg of molecular iodine. An equivalent dose of iodide (80 ug/kg) was given to a control group of rats. The negative control consisted of rats which were dosed with tap water. Rats were weighed daily. At the end of the 2 week study rats were sacrificed and microscopic sections of the mammary gland tissues were stained with hematoxylin and eosin prior to being read by a pathologist.
# thyroid [3] = conditions: male rats, cited from earlier work
# thyroid [4] = experiment: Thyroid weight of rats after subchronic oral administration (Sherer et al., cited); assay type: in vivo, male rats; conditions: compared with molecular iodine
# Method: The only scientific studies on the relative oral toxicity of molecular iodine and iodide was performed during the early 1990s (Karla Thrall, Ph.D. Thesis, "Formation of Organic By-Products Following Consumption of Iodine Disinfected Drinking Water", Summary and Conclusion Section, Oregon State University, Department of Chemistry, 1992). The weight of a mammals thyroid is one key diagnostic measure used to evaluate the toxicity of an iodine composition. […] Another way to state this is that it required ten time more molecular iodine than iodide to effect animal thyroid function with an orally administered iodine composition.
# mammary tissue [5] = experiment: Histologic grading of mammary tissue in iodine deficient rats, 2 week study (Example 8); assay type: in vivo, Female Sprague-Dawley rats
# Method: Perchlorate-treated (400 mg/dL NaClO4) municipal tap water was provided ad libitum for the first five days of captivity. […] Each day for the five days preceding the initiation of testing, animals received estrogen (25 ug of 17-βestradiol) suspended in 100 ul of sesame oil injected IM. During the 2 week experiment estrogen (2.5 ug 17-βestradiol) suspended in 100 ul of sesame oil was injected daily. Vaginal smears were taken every other day to insure that rats achieved constant estrus throughout the experiment.
# as §1, with “with 80 ug/kg” for “with one of three concentrations 0.0010, 0.010 or 0.10 mg/kg”, “iodine. An equivalent” for “iodine. A”, “iodide (80” for “iodide (100”, “water. Rats were weighed daily.” for “water.”, “of the 2 week study” for “of 4 weeks”
# Each group contained 10 animals.
# The mammary tissue was graded for lobular hyperplasia, secretions, periductal fibrosis, and fibroadenomatous changes. The scoring system for lobular hyperplasia, secretions, periductal fibrosis graded as positive only those animals showing moderate to severe conditions. […] The results of this histological grading are shown below in tabular form.
# dysplastic mastodynia = conditions: women with dysplastic mastodynia; cited from earlier work
# [6] = function of pH; cited from earlier work
# mammary glands = conditions: compared with iodide; cited from earlier work
# thyroid hormones = conditions: repeated daily doses; no increase below; cited from earlier work
compound,measurement,setting,value
I [iodide],Fibroadenomata,mammary tissue [1]; 100 ug/kg daily,3/10
same,Lobular hyperplasia,mammary tissue [1]; 100 ug/kg daily,4/10
same,Periductal fibrosis,mammary tissue [1]; 100 ug/kg daily,5/10
same,Secretion,mammary tissue [1]; 100 ug/kg daily,5/10
same,formation of fibroadenomata (in words),mammary tissue [1]; iodide 100 ug/kg daily,did not substantially alleviate the formation of fibroadenomata
same,range of human consumption above which there is a health risk,human,0.150 to 1.0 mg/day
same,average body weight at end,"[2]; 80 ug/kg daily, end of 2 weeks",235±7.1
same,average body weight at start,"[2]; 80 ug/kg, start",214±6.5
same,"increased thyroid weight, dose",thyroid [3]; subchronic oral administration,10 mg/kg
same,concentration affecting thyroid weight relative to molecular iodine (fold less),thyroid [4],10 fold
same,Fibroadenomata,"mammary tissue [5]; 80 ug/kg daily gavage, 2 weeks",4/10
same,secretion and fibroadenomata (result in words),"mammary tissue [5]; 80 ug/kg daily gavage, 2 weeks",displayed increased secretion and fibroadenomata
same,Lobular hyperplasia,"mammary tissue [5]; po, 0.08 mg/kg, 336 h",4/10
same,Periductal fibrosis,"mammary tissue [5]; po, 0.08 mg/kg, 336 h",6/10
same,Secretion,"mammary tissue [5]; po, 0.08 mg/kg, 336 h",4/10
II [iodine],improvement rate,dysplastic mastodynia,71%
II [molecular iodine],stability in water,[6],unstable in water
same,diminishing ductal hyperplasia and perilobular fibrosis in the mammary glands,mammary glands,distinctly more effective in diminishing ductal hyperplasia and perilobular fibrosis in the mammary glands than iodide
same,formation of fibroadenomata and periductal fibrosis (in words),mammary tissue [1]; 1 ug/kg daily,did not substantially alleviate the formation of fibroadenomata and periductal fibrosis
same,Fibroadenomata,mammary tissue [1]; 1 ug/kg daily,4/10
same,Lobular hyperplasia,mammary tissue [1]; 1 ug/kg daily,4.10
same,Periductal fibrosis,mammary tissue [1]; 1 ug/kg daily,6/10
same,Secretion,mammary tissue [1]; 1 ug/kg daily,6/10
same,Fibroadenomata,mammary tissue [1]; 10 ug/kg daily,1/10
same,Lobular hyperplasia,mammary tissue [1]; 10 ug/kg daily,2/10
same,Periductal fibrosis,mammary tissue [1]; 10 ug/kg daily,4/10
same,Secretion,mammary tissue [1]; 10 ug/kg daily,4/10
same,Fibroadenomata,mammary tissue [1]; 100 ug/kg daily,1/10
same,Lobular hyperplasia,mammary tissue [1]; 100 ug/kg daily,2/10
same,Periductal fibrosis,mammary tissue [1]; 100 ug/kg daily,2/10
same,Secretion,mammary tissue [1]; 100 ug/kg daily,3/10
same,formation of fibroadenomata and periductal fibrosis (in words),mammary tissue [1]; 10 and 100 ug/kg daily,substantially reduced the formation of fibroadenomata and periductal fibrosis
same,dose at which an increase in steady state levels of thyroid hormones was measured,thyroid hormones,10 mg per kilogram of body weight
same,did not effect thyroid weight even at concentrations of,"thyroid [3]; no effect up to this dose, oral",100 mg/kg
